Test results from patent US8518889B2, “Method of treating cancer with antibodies against long-form leukotriene B4 receptor BLT2” (Korea University Research & Business Foundation, priority 2007, dated 2013).

Legend:
MCF-7 cells = settings: LY255283 10 μM, epirubicin 100 ng/ml
[1] = tested on: human pancreatic cancer cells; settings: cited from earlier work

## COc1cccc2c1C(=O)c1c(O)c3c(c(O)c1C2=O)C[C@@](O)(C(=O)CO)C[C@@H]3O[C@H]1C[C@H](N)[C@@H](O)[C@H](C)O1 [Epirubicin]
MCF-7 cells
  DNA fragmentation / cell death: only tiny increase in cell death

## CCCc1c(OCCCOc2cc(O)c(-c3ccc(F)cc3)cc2CC)cccc1Oc1ccccc1C(=O)O [LY293111]
[1]
  growth and apoptosis of human pancreatic cancer cells: inhibited the growth of and induced apoptosis of
